Test results taken from US11116735B2, “Use of substituted benzylideneguanidine derivatives as synergists for polymyxin antibiotics” (GUANGZHOU INSIGHTER BIOTECHNOLOGY CO., LTD., priority 2015, dated 2021).

Key:
[1] = tested on: E. coli 3Y-9; experiment: MIC by doubling dilution, colistin sulfate-susceptible E. coli 3Y-9; type: cell-based, Escherichia coli; conditions: for In vitro minimum inhibitory concentration (MIC) of the substance alone: E. coli 3Y-9, colistin sulfate-susceptible, derivatives as hydrochlorides; for In vitro MIC of colistin sulfate in the presence of the substituted benzylideneguanidine derivative: E. coli 3Y-9, culture comprised 20.0 ppm of the derivative (hydrochloride), colistin sulfate serially diluted
[2] = tested on: E. coli 2S-19; experiment: MIC by doubling dilution, colistin sulfate-susceptible E. coli 2S-19; type: cell-based, Escherichia coli; conditions: for In vitro minimum inhibitory concentration (MIC) of the substance alone: E. coli 2S-19, colistin sulfate-susceptible, derivatives as hydrochlorides; for In vitro MIC of colistin sulfate in the presence of the substituted benzylideneguanidine derivative: E. coli 2S-19, culture comprised 20.0 ppm of the derivative (hydrochloride), colistin sulfate serially diluted
[3] = tested on: E. coli 5W-7; experiment: MIC by doubling dilution, colistin sulfate-susceptible E. coli 5W-7; type: cell-based, Escherichia coli; conditions: for In vitro minimum inhibitory concentration (MIC) of the substance alone: E. coli 5W-7, colistin sulfate-susceptible, derivatives as hydrochlorides; for In vitro MIC of colistin sulfate in the presence of the substituted benzylideneguanidine derivative: E. coli 5W-7, culture comprised 20.0 ppm of the derivative (hydrochloride), colistin sulfate serially diluted
[4] = tested on: E. coli 3B-24; experiment: MIC by doubling dilution, colistin sulfate-susceptible E. coli 3B-24; type: cell-based, Escherichia coli; conditions: for In vitro minimum inhibitory concentration (MIC) of the substance alone: E. coli 3B-24, colistin sulfate-susceptible, derivatives as hydrochlorides; for In vitro MIC of colistin sulfate in the presence of the substituted benzylideneguanidine derivative: E. coli 3B-24, culture comprised 20.0 ppm of the derivative (hydrochloride), colistin sulfate serially diluted
[5] = tested on: E. coli 2G-7; experiment: MIC by doubling dilution, colistin sulfate-resistant E. coli 2G-7; conditions: for In vitro minimum inhibitory concentration (MIC) of the substance alone: E. coli 2G-7, colistin sulfate-resistant, derivatives as hydrochlorides; for In vitro MIC of colistin sulfate in the presence of the substituted benzylideneguanidine derivative: E. coli 2G-7, resistant, culture comprised 20.0 ppm of the derivative (hydrochloride)
Experimental: (§1) In vitro minimum inhibitory concentrations of colistin sulfate against the strains where the cultures respectively comprised 20.0 ppm of the substituted benzylideneguanidine derivatives were also measured.

[6] = tested on: E. coli 5F-1; experiment: MIC by doubling dilution, colistin sulfate-resistant E. coli 5F-1; conditions: for In vitro minimum inhibitory concentration (MIC) of the substance alone: E. coli 5F-1, colistin sulfate-resistant, derivatives as hydrochlorides; for In vitro MIC of colistin sulfate in the presence of the substituted benzylideneguanidine derivative: E. coli 5F-1, resistant, culture comprised 20.0 ppm of the derivative (hydrochloride)
Experimental: as §1

[7] = tested on: E. coli 4D-6; experiment: MIC by doubling dilution, colistin sulfate-resistant E. coli 4D-6; conditions: for In vitro minimum inhibitory concentration (MIC) of the substance alone: E. coli 4D-6, colistin sulfate-resistant, derivatives as hydrochlorides; for In vitro MIC of colistin sulfate in the presence of the substituted benzylideneguanidine derivative: E. coli 4D-6, resistant, culture comprised 20.0 ppm of the derivative (hydrochloride)
Experimental: as §1

[8] = tested on: E. coli 3H-4; experiment: MIC by doubling dilution, colistin sulfate-resistant E. coli 3H-4; conditions: for In vitro minimum inhibitory concentration (MIC) of the substance alone: E. coli 3H-4, colistin sulfate-resistant, derivatives as hydrochlorides; for In vitro MIC of colistin sulfate in the presence of the substituted benzylideneguanidine derivative: E. coli 3H-4, resistant, culture comprised 20.0 ppm of the derivative (hydrochloride)
Experimental: as §1

Row | Compound | In vitro minimum inhibitory concentration (MIC) of the substance alone [1] [ppm] | In vitro MIC of colistin sulfate in the presence of the substituted benzylideneguanidine derivative [1] [ppm] | In vitro minimum inhibitory concentration (MIC) of the substance alone [2] [ppm] | In vitro MIC of colistin sulfate in the presence of the substituted benzylideneguanidine derivative [2] [ppm] | In vitro minimum inhibitory concentration (MIC) of the substance alone [3] [ppm] | In vitro MIC of colistin sulfate in the presence of the substituted benzylideneguanidine derivative [3] [ppm] | In vitro minimum inhibitory concentration (MIC) of the substance alone [4] [ppm] | In vitro MIC of colistin sulfate in the presence of the substituted benzylideneguanidine derivative [4] [ppm] | In vitro minimum inhibitory concentration (MIC) of the substance alone [5] [ppm] | In vitro MIC of colistin sulfate in the presence of the substituted benzylideneguanidine derivative [5] [ppm] | In vitro minimum inhibitory concentration (MIC) of the substance alone [6] [ppm] | In vitro MIC of colistin sulfate in the presence of the substituted benzylideneguanidine derivative [6] [ppm] | In vitro minimum inhibitory concentration (MIC) of the substance alone [7] [ppm] | In vitro MIC of colistin sulfate in the presence of the substituted benzylideneguanidine derivative [7] [ppm] | In vitro minimum inhibitory concentration (MIC) of the substance alone [8] [ppm] | In vitro MIC of colistin sulfate in the presence of the substituted benzylideneguanidine derivative [8] [ppm]
1 | CC(C)c1ccc(C=NNC(=N)NN=Cc2ccc(C(C)C)cc2)cc1 [Compound 11] | >800 | 1.00 | >800 | 1.00 | >800 | 0.50 | >800 | 2.00 | >800 | 16 | >800 | 16 | >800 | 64 | >800 | 16
2 | COC(=O)c1ccc(C=NN=C(N)NN=Cc2ccc(C(=O)OC)cc2)cc1 [Compound 12] | >800 | 1.00 | >800 | 1.00 | >800 | 0.50 | >800 | 1.00 | >800 | 4 | >800 | 8 | >800 | 16 | >800 | 4
3 | N#Cc1ccc(C=NN=C(N)NN=Cc2ccc(C#N)cc2)cc1 [Compound 13] | >800 | 1.00 | >800 | 1.00 | >800 | 0.50 | >800 | 0.50 | >800 | 4 | >800 | 8 | >800 | 16 | >800 | 4
4 | NC(=NN=Cc1ccc(C(F)(F)F)cc1)NN=Cc1ccc(C(F)(F)F)cc1 [Compound 14] | >800 | 1.00 | >800 | 1.00 | >800 | 0.50 | >800 | 1.00 | >800 | 16 | >800 | 32 | >800 | 32 | >800 | 8
